Measured values as given in patent publication US9820497B2, “Astaxanthin-containing pet foods” (FUJI CHEMICAL INDUSTRY CO., LTD, priority 2003, dated 2017).

Columns and labels:
[1] = known; cited from earlier work
dogs = experiment: Health conditions of the dogs before and during administration; assay type: in vivo, dog; conditions: four dogs, before and during the 4 weeks of administration
Experimental: (§1) Four dogs were fed only with the same commercially available dog food for 3 months or more, and thereafter, two AstaReal tablets (manufactured by Natureal Corporation, containing 0.67 mg of free astaxanthin per tablet in terms of free astaxanthin) per day were given to the dogs at dinner for 4 weeks. […] The feces discharged before and after administration of astaxanthin were collected. Samples were prepared each by taking a piece from the top portion, middle portion and end portion in the same amount and mixing these pieces. The samples were placed in a shielded vessel of 100 ml in volume and kept in dark and used in tests within 24 hours.

[2] = Feces odor test (odor tester KALMOR-Σ) before and after administration; assay type: in vivo, dog; conditions: four dogs, 4 weeks of administration; conclusion from Table 3
Experimental: as §1
Odor of the samples was measured by an odor tester (KALMOR-Σ, manufactured by Kalmor Co.) in a room maintained at 22° C. To explain more specifically, the odor of an airtight vinyl bag of 280 mm×200 mm containing no sample was measured as an initial value by inserting a test probe. Then, 100 mg of sample was weighed, placed in the vinyl bag and stand still for 15 minutes. The odor of the vinyl bag having the sample placed therein was measured (measured value). The value of the odor was obtained by subtracting the initial value from the measured value.

[3] = as high as β-carotene; cited from earlier work

Compound: CC1=C(/C=C/C(C)=C/C=C/C(C)=C/C=C/C=C(C)/C=C/C=C(C)/C=C/C2=C(C)C(=O)C(O)CC2(C)C)C(C)(C)CC(O)C1=O (stereo not drawn) [astaxanthin, 3,3′-dihydroxy-β,β-carotene-4,4′-dione]
- mutagenicity [1]: no mutagenicity is observed
- health conditions (diarrhea, fatigue) (dogs): healthy conditions without exhibiting diarrhea and fatigue
- odor of the excrement [2]: clearly is decreased
- antioxidative action relative to β-carotene [3]: about 40 times
